# Assay results from patent US10889589B2, “Bicyclic urea, thiourea, guanidine and cyanoguanidine compounds useful for the treatment of pain” (Array BioPharma Inc., priority 2012, dated 2021).
# pIC50: −log10 of the molar value.
# Molecular target: recombinant human TrkA (Homo sapiens (Human), UniProt P04629)
# Experiment: TrkA Kinase Binding Assay (LanthaScreen Eu)
# Details: averaged IC50; read-out: TrkA Enzyme IC50
# Protocol: TrkA binding activity was determined in a TrkA LanthaScreen™ Eu Kinase Binding Assay. 5 nM His-tagged recombinant human TrkA (6HIS tagged cytoplasmic domain from Invitrogen, Catalog No. PV3144) was incubated with 4 nM Alexa-Fluor® Tracer 236 (Invitrogen Cat. No. PV5592), 2 nM biotinylated anti-His (Invitrogen Cat. No. PV6090), and 2 nM europium-labeled Streptavidin (Invitrogen Cat. No. PV5899), in buffer (25 mM MOPS, pH 7.5, 5 mM MgCl2, 0.005% Triton X-100). Three fold serial dilutions of compounds of the invention in DMSO were added to a final percentage of 2% DMSO. After 60-minute incubation at 22° C., the reaction was measured using the EnVision mutlimode plate reader (PerkinElmer) via TR-FRET dual wavelength detection at […]. The percent of control was calculated using a ratiometric emission factor. The IC50 values were determined by fitting a four parameter model to the percent of control data.
# Table A provides averaged IC50 values for compounds of the invention when tested in the assay of Example A, where A represents an averaged IC50 value <100 nM; B represents an averaged IC50 value from 100 to 1,000 nM, and C represents an averaged IC50 value between >1,000 nM and 3,000 nM.
# Chain of recombinant human TrkA (P04629 440-796): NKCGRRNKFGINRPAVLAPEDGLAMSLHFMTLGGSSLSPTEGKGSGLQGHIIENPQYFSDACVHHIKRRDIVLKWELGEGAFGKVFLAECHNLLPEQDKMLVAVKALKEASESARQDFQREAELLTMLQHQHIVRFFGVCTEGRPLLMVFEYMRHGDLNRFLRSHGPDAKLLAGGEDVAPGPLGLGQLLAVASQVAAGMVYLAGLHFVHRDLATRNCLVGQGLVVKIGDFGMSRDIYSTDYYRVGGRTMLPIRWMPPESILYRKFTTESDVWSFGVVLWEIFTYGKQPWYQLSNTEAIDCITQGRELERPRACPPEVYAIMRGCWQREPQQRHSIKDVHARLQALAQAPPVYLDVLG
row,pIC50,SMILES
1,> 7.00,"Cc1c(-c2cnn(C)c2)nn(-c2ccccc2)c1NC(=O)N[C@@H]1c2cc(F)c(F)cc2C2(CC2)[C@H]1O (relative stereo) [Example 58, 1-(trans-5′,6′-difluoro-2′-hydroxy-2′,3′-dihydrospiro[cyclopropane-1,1′-inden]-3′-yl)-3-(1′,4-dimethyl-1-phenyl-1H, 1′H-[3,4′-bipyrazol]-5-yl)urea]"
2,> 7.00,"COc1ncc(-c2nn(-c3ccccc3)c(NC(=O)N[C@@H]3c4ccccc4C4(CC4)[C@H]3O)c2C)cn1 (relative stereo) [Example 57, 1-(trans-2′-hydroxy-2′,3′-dihydrospiro[cyclopropane-1,1′-inden]-3′-yl)-3-(3-(2-methoxypyrimidin-5-yl)-4-methyl-1-phenyl-1H-pyrazol-5-yl)urea]"
3,5.52 to 6.00,"Cc1nn(-c2ccccc2)c(NC(=O)N[C@@H]2c3cc(C(N)=O)ccc3C(C)(C)C[C@H]2O)c1C (relative stereo) [Example 98, trans-8-(3-(3,4-dimethyl-1-phenyl-1H-pyrazol-5-yl)ureido)-7-hydroxy-5,5-dimethyl-5,6,7,8-tetrahydronaphthalene-2-carboxamide]"
4,> 7.00,"Cc1ncc(-c2nn(-c3ccccc3)c(NC(=O)N[C@@H]3c4ccccc4C4(CC4)[C@H]3O)c2C)cn1 (relative stereo) [Example 56, 1-(trans-2′-hydroxy-2′,3′-dihydrospiro[cyclopropane-1,1′-inden]-3′-yl)-3-(4-methyl-3-(2-methylpyrimidin-5-yl)-1-phenyl-1H-pyrazol-5-yl)urea]"
5,> 7.00,"Cc1c(-c2cnn(C)c2)nn(-c2ccccc2)c1NC(=O)N[C@@H]1c2cc(F)ccc2C2(CC2)[C@H]1O (relative stereo) [Example 63, 1-(1′,4-dimethyl-1-phenyl-1H1′H-[3,4′-bipyrazol]-5-yl)-3-(trans-5′-fluoro-2′-hydroxy-2′,3′-dihydrospiro[cyclopropane-1,1′-inden]-3′-yl)urea]"
6,> 7.00,"Cc1c(NC(=O)N[C@@H]2c3ccccc3C(C)(C)C[C@H]2O)n(-c2ccccc2)[nH]c1=O (relative stereo) [Example 95, 1-(trans-2-hydroxy-4,4-dimethyl-1,2,3,4-tetrahydronaphthalen-1-yl)-3-(4-methyl-5-oxo-2-phenyl-2,5-dihydro-1H-pyrazol-3-yl)urea]"
7,> 7.00,"Cc1c(-c2cnn(C)c2)nn(-c2ccccc2)c1NC(=O)N[C@@H]1c2ccc(F)cc2C2(CC2)[C@H]1O (relative stereo) [Example 64, 1-(1′,4-dimethyl-1-phenyl-1H,1′H-[3,4′-bipyrazol]-5-yl)-3-(trans-6′-fluoro-2′-hydroxy-2′,3′-dihydrospiro[cyclopropane-1,1′-inden]-3′-yl)urea]"
8,> 7.00,"COC(=O)c1ccc2c(c1)[C@@H](NC(=O)Nc1c(C)c(C)nn1-c1ccccc1)[C@H](O)CC2(C)C (relative stereo) [Example 99, trans-methyl 8-(3-(3,4-dimethyl-1-phenyl-1H-pyrazol-5-yl)ureido)-7-hydroxy-5,5-dimethyl-5,6,7,8-tetrahydronaphthalene-2-carboxylate]"
9,> 7.00,"Cc1c(OCC2CCN(C)CC2)nn(-c2ccccc2)c1NC(=O)N[C@@H]1c2ccccc2CC[C@H]1O (relative stereo) [Example 123, 1-(trans-2-hydroxy-1,2,3,4-tetrahydro-naphthalen-1-yl)-3-(4-methyl-3-((1-methylpiperidin-4-yl)methoxy)-1-phenyl-1H-pyrazol-5-yl)urea]"
10,> 7.00,"COc1nn(-c2ccccc2)c(NC(=O)N[C@@H]2c3cc(F)c(F)cc3C3(CC3)[C@H]2O)c1C (relative stereo) [Example 62, 1-(trans-5′,6′-difluoro-2′-hydroxy-2′,3′-dihydrospiro[cyclo-propane-1,1′-inden]-3′-yl)-3-(3-methoxy-4-methyl-1-phenyl-1H-pyrazol-5-yl)urea]"
